From the supplement of paper PMC9663587

How the values were obtained:
THZ1 = compound: CN(C)C/C=C/C(=O)Nc1ccc(C(=O)Nc2cccc(Nc3ncc(Cl)c(-c4c[nH]c5ccccc45)n3)c2)cc1 [THZ1]; test: GR value, 72 h; higher = faster growth (1 = untreated, <0 = killing);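 also: breast cancer and non-malignant breast epithelial lines, nine half-log doses, viable cells counted by Hoechst and LIVE/DEAD dye imaging versus time-zero plates and DMSO controls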
THZ531 [1] = compound: T1, CN(C)C/C=C/C(=O)Nc1ccc(C(=O)N2CCC[C@@H](Nc3ncc(Cl)c(-c4c[nH]c5ccccc45)n3)C2)cc1 [THZ531]; test: as above
BSJ-03-123 = compound: CC(=O)c1c(C)c2cnc(Nc3ccc(N4CCN(CCOCCOCCOCCNC(=O)COc5cccc6c5C(=O)N(C5CCC(=O)NC5=O)C6=O)CC4)cn3)nc2n(C2CCCC2)c1=O [BSJ-03-123]; test: as above
[2] = compound: CCc1cnn2c(NCc3ccc[n+]([O-])c3)cc(N3CCCC[C@H]3CCO)nc12; test: as above
[3] = compound: CCN1CCN(Cc2ccc(Nc3ncc(F)c(-c4cc(F)c5nc(C)n(C(C)C)c5c4)n3)nc2)CC1; test: as above
YKL-5-124 = compound: C=CC(=O)Nc1ccc(C(=O)Nc2[nH]nc3c2CN(C(=O)N[C@H](CN(C)C)c2ccccc2)C3(C)C)cc1 [YKL-5-124]; test: as above
LEE011/Ribociclib = compound: CN(C)C(=O)c1cc2cnc(Nc3ccc(N4CCNCC4)cn3)nc2n1C1CCCC1 [LEE011/Ribociclib]; test: as above
[4] = compound: CC(=O)c1c(C)c2cnc(Nc3ccc(N4CCNCC4)cn3)nc2n(C2CCCC2)c1=O; test: as above
THZ531 [5] = compound: T1, THZ531
Tivantinib/ARQ197 = compound: O=C1NC(=O)[C@@H](c2cn3c4c(cccc24)CCC3)[C@@H]1c1c[nH]c2ccccc12 [Tivantinib/ARQ197]
Paclitaxel = compound: CC(=O)O[C@H]1C(=O)[C@@]2(C)[C@H]([C@H](OC(=O)c3ccccc3)[C@]3(O)C[C@H](OC(=O)[C@H](O)[C@@H](NC(=O)c4ccccc4)c4ccccc4)C(C)=C1C3(C)C)[C@]1(OC(C)=O)CO[C@@H]1C[C@@H]2O [Paclitaxel]
senexin b = compound: CN1CCN(C(=O)c2ccc3cc(CCNc4ncnc5ccc(C#N)cc45)ccc3c2)CC1 [senexin b]
Pictilisib/GDC0941 = compound: CS(=O)(=O)N1CCN(Cc2cc3nc(-c4cccc5[nH]ncc45)nc(N4CCOCC4)c3s2)CC1 [Pictilisib/GDC0941]
AZD6738 = compound: C[C@@H]1COCCN1c1cc(C2([S@](C)(=N)=O)CC2)nc(-c2cc[nH]c3nccc2-3)n1 [AZD6738]
Ceritinib/LDK378 = compound: Cc1cc(Nc2ncc(Cl)c(Nc3ccccc3S(=O)(=O)C(C)C)n2)c(OC(C)C)cc1C1CCNCC1 [Ceritinib/LDK378]
Rucaparib = compound: CNCc1ccc(-c2[nH]c3cc(F)cc4c3c2CCNC4=O)cc1 [Rucaparib]
BSJ-01-175 = compound: CN(C)C/C=C/C(=O)Nc1ccc(O[C@@H]2CCC[C@@H](Nc3ncc(Cl)c(-c4c[nH]c5ccccc45)n3)C2)cc1 [BSJ-01-175]
Cediranib/AZD2171 = compound: COc1cc2c(Oc3ccc4[nH]c(C)cc4c3F)ncnc2cc1OCCCN1CCCC1 [Cediranib/AZD2171]
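For GR50, 72 h in this document: breast cancer and non-malignant breast epithelial cell lines, Deep Dye Drop or Dye Drop imaging, nine half-log doses, GR normalized to time-zero plates and DMSO-only controls.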

HCC70
GR value (THZ1; 0.0001 µM): 0.985 GR
GR value (THZ1; 0.0003162 µM): 1.01 GR
GR value (THZ1; 0.001 µM): 1.04 GR
GR value (THZ1; 0.003162 µM): 1.02 GR
GR value (THZ1; 0.01 µM): 0.707 GR
GR value (THZ1; 0.03162 µM): -0.291 GR
GR value (THZ1; 0.1 µM): -0.838 GR
GR value (THZ1; 0.3162 µM): -0.936 GR
GR value (THZ1; 1 µM): -0.944 GR
GR value (THZ531 [1]; 0.0001 µM): 1.09 GR
GR value (THZ531 [1]; 0.0003162 µM): 0.962 GR
GR value (THZ531 [1]; 0.001 µM): 1.15 GR
GR value (THZ531 [1]; 0.003162 µM): 1.02 GR
GR value (THZ531 [1]; 0.01 µM): 1.16 GR
GR value (THZ531 [1]; 0.03162 µM): 0.962 GR
GR value (THZ531 [1]; 0.1 µM): -0.197 GR
GR value (THZ531 [1]; 0.3162 µM): -0.793 GR
GR value (THZ531 [1]; 1 µM): -0.941 GR
GR value (BSJ-03-123; 0.001 µM): 1.1 GR
GR value (BSJ-03-123; 0.003162 µM): 0.898 GR
GR value (BSJ-03-123; 0.01 µM): 1 GR
GR value (BSJ-03-123; 0.03162 µM): 0.996 GR
GR value (BSJ-03-123; 0.1 µM): 0.911 GR
GR value (BSJ-03-123; 0.3162 µM): 0.848 GR
GR value (BSJ-03-123; 1 µM): 0.865 GR
GR value (BSJ-03-123; 3.162 µM): 0.754 GR
GR value (BSJ-03-123; 10 µM): -0.525 GR
GR value ([2]; 0.0001 µM): 1.05 GR
GR value ([2]; 0.0003162 µM): 0.913 GR
GR value ([2]; 0.001 µM): 1.13 GR
GR value ([2]; 0.003162 µM): 1.26 GR
GR value ([2]; 0.01 µM): 0.835 GR
GR value ([2]; 0.03162 µM): -0.865 GR
GR value ([2]; 0.1 µM): -0.892 GR
GR value ([2]; 0.3162 µM): -0.885 GR
GR value ([2]; 1 µM): -0.901 GR
GR value ([3]; 0.001 µM): 1.06 GR
GR value ([3]; 0.003162 µM): 1.38 GR
GR value ([3]; 0.01 µM): 1.24 GR
GR value ([3]; 0.03162 µM): 1.18 GR
GR value ([3]; 0.1 µM): 1.2 GR
GR value ([3]; 0.3162 µM): 1.06 GR
GR value ([3]; 1 µM): 0.852 GR
GR value ([3]; 3.162 µM): -0.0922 GR
GR value ([3]; 10 µM): -0.82 GR
GR value (YKL-5-124; 0.001 µM): -0.0339 GR
GR value (YKL-5-124; 0.003162 µM): -0.217 GR
GR value (YKL-5-124; 0.01 µM): -0.27 GR
GR value (YKL-5-124; 0.03162 µM): -0.419 GR
GR value (YKL-5-124; 0.1 µM): -0.484 GR
GR value (YKL-5-124; 0.3162 µM): -0.506 GR
GR value (YKL-5-124; 1 µM): -0.608 GR
GR value (YKL-5-124; 3.162 µM): -0.727 GR
GR value (YKL-5-124; 10 µM): -0.871 GR
GR value (LEE011/Ribociclib; 0.001 µM): 1.03 GR
GR value (LEE011/Ribociclib; 0.003162 µM): 1.17 GR
GR value (LEE011/Ribociclib; 0.01 µM): 1.01 GR
GR value (LEE011/Ribociclib; 0.03162 µM): 1.04 GR
GR value (LEE011/Ribociclib; 0.1 µM): 1.09 GR
GR value (LEE011/Ribociclib; 0.3162 µM): 1.03 GR
GR value (LEE011/Ribociclib; 1 µM): 1.06 GR
GR value (LEE011/Ribociclib; 3.162 µM): 1.03 GR
GR value (LEE011/Ribociclib; 10 µM): 1.05 GR
GR value ([4]; 0.0003162 µM): 0.988 GR
GR value ([4]; 0.001 µM): 1.07 GR
GR value ([4]; 0.003162 µM): 1.08 GR
GR value ([4]; 0.01 µM): 1.07 GR
GR value ([4]; 0.03162 µM): 1.09 GR
GR value ([4]; 0.1 µM): 0.961 GR
GR value ([4]; 0.3162 µM): 1.06 GR
GR value ([4]; 1 µM): 1.05 GR
GR value ([4]; 3.162 µM): 0.896 GR
GR50, 72 h (THZ531 [5]): 0.0623 µM
GR50, 72 h (Tivantinib/ARQ197): 0.335 µM
GR50, 72 h (Paclitaxel): 0.00134 µM
GR50, 72 h (senexin b): > 10 µM
GR50, 72 h (Pictilisib/GDC0941): 0.161 µM
GR50, 72 h (AZD6738): 1.84 µM
GR50, 72 h (Ceritinib/LDK378): 3.19 µM
GR50, 72 h (Rucaparib): > 10 µM
GR50, 72 h (BSJ-01-175): 0.0192 µM
GR50, 72 h (Cediranib/AZD2171): 4.54 µM
